# Experimental data: patent US5571822A, “Antitumor compounds” (The University of North Carolina at Chapel Hill, priority 1994, dated 1996)
# Where two headings read alike, the source gives them in different places.
# Assays:
# tubulin [1] = experiment: inhibition of tubulin polymerization (ITP); assay type: biochemical, bovine
# Method: Electrophoretically homogeneous bovine brain tubulin was purified as described previously (Hamel, et al., 1984). […] Dihydrocombretastatin A-4 was prepared as described previously (Getahun et al., 1992).
# The tubulin polymerization assay was performed as described previously (Li et al., 1994). In brief, tubulin at 1.2 mg/mL ([…]) was preincubated for 15 min at 26° C. in a 0.24 mL volume in 0.8M monosodium glutamate (pH 6.6 with NaOH in a 2M stock solution) with varying drug concentrations. The drug stock solutions were in dimethyl sulfoxide, and the final solvent concentration was 4% (v/v). […] All concentrations are in terms of the final reaction volume (0.25 mL). The reaction mixtures were chilled on ice, and […] of 10 mM GTP was added to each reaction mixture. Samples were transferred to cuvettes held at 0° C. by an electronic temperature controller in Gilford spectrophotometers. Baselines were established at 350 nm, and polymerization initiated by a temperature jump to 26° C. The jump took about 50 sec to complete. After 20 min, turbidity readings were recorded, and the temperature controller was set to 0° C. When depolymerization was complete, turbidity readings were again recorded. […] IC50 values were obtained graphically from inhibition of polymerization by different drug concentrations. Four spectrophotometers were used for each experimental sequence, with at least two control reactions (no drug) in each set.
# DU-145 = experiment: NCI in vitro tumor cell screen, DU-145 prostate cancer; assay type: cell-based; conditions: Homo sapiens
# Method: (§1) Selected 2-phenyl-4-quinolones were assayed using an in vitro, disease-oriented antitumor screen run by the National Cancer Institute (NCI) (e.g., Boyd 1989). The screen involved approximately 60 different cell lines and is a useful indicator of in vivo antitumor activity for a broad variety of tumor types (Grever et al., 1992; Monks et al., 1991). The cell lines tested included cells derived from the following solid tumor types: leukemia, non-small cell lung, colon, the central nervous system (CNS), melanoma, ovarian, renal, prostate, and breast cancers.
# (§2) melonoma; SF268 and SF295, CNS tumor cell lines; DU145, prostate cancer
# tubulin [2] = experiment: inhibition of radiolabeled colchicine binding to tubulin (ICB); design: species or system bovine; conditions: evaluated only when polymerization IC50 ≤ 1.0 μM; inhibitor equimolar with [3H]colchicine, 5-fold molar excess over tubulin
# Method: Studies conducted in support of the present invention indicate that one mode of action of the 2-phenyl-4-quinolone compounds, as antitumor agents, is an ability to bind to tubulin and inhibit cell mitosis. […] […].
# […]. […] […].
# Electrophoretically homogeneous bovine brain tubulin was purified as described previously (Hamel, et al., 1984). Combretastatin A-4 was a generous gift of Dr. G. R. Pettit, Arizona State University. Dihydrocombretastatin A-4 was prepared as described previously (Getahun et al., 1992). […]
# MDA-N = experiment: NCI in vitro tumor cell screen, MDA-N breast cancer; assay type: cell-based; conditions: Homo sapiens
# Method: as §1
# SF-295 = experiment: NCI in vitro tumor cell screen, SF-295 CNS tumor; assay type: cell-based
# Method: as §1, §2
# SK-Mel-5 = experiment: NCI in vitro tumor cell screen, SK-Mel-5 melanoma; assay type: cell-based; conditions: Homo sapiens
# Method: as §1, §2
# HCT116 = experiment: NCI in vitro tumor cell screen, HCT116 colon cancer; assay type: cell-based; conditions: Homo sapiens, HCT-116
# Method: as §1
# OVCAR-4 = experiment: NCI in vitro tumor cell screen, OVCAR-4 ovarian cancer; assay type: cell-based; conditions: Homo sapiens
# Method: as §1
# [3] = tested on: approximately 60 different cell lines; experiment: NCI in vitro disease-oriented human tumor cell screen, all cell lines; assay type: cell-based; conditions: for GI50: Homo sapiens
# From the text: The cell lines tested included cells derived from the following solid tumor types: leukemia, non-small cell lung, colon, the central nervous system (CNS), melanoma, ovarian, renal, prostate, and breast cancers.
# KM202L = experiment: NCI in vitro tumor cell screen, KM20L2 colon cancer; assay type: cell-based; conditions: Homo sapiens, KM-20L2
# Method: as §1
# NCI-H226 = experiment: NCI in vitro tumor cell screen, NCI-H226 non-small cell lung cancer; assay type: cell-based; conditions: Homo sapiens
# Method: as §1
# K-562 = experiment: NCI in vitro tumor cell screen, K-562 leukemia; assay type: cell-based; conditions: Homo sapiens, K562
# Method: as §1
# SF-268 = experiment: NCI in vitro tumor cell screen, SF-268 CNS tumor; assay type: cell-based; conditions: Homo sapiens
# Method: as §1, §2
# OVCAR-3 = experiment: NCI in vitro tumor cell screen, OVCAR-3 ovarian cancer; assay type: cell-based; conditions: Homo sapiens
# Method: as §1
# RXF-393 = experiment: NCI in vitro tumor cell screen, RXF-393 renal cancer; assay type: cell-based; conditions: Homo sapiens
# Method: as §1
# [4] = ± SD, tubulin 1.2 mg/mL, 26° C., 20 min, read-out: ITP IC50 (inhibition of tubulin polymerization)
# [5] = Homo sapiens, SF-295; read-out: logGI50 (converted)
# [6] = calculated from all cell lines tested (Table II), read-out: average logGI50 (converted)
# [7] = SF-268, CNS tumor, read-out: logGI50 (converted)
# [8] = average over cell lines, read-out: average log GI50 (converted)
# [9] = values given in mM, read-out: IC50, inhibition of tubulin polymerization
Structure (SMILES),IC50 (tubulin [1]; [4]) [mM],ICB (% inhibition of colchicine binding) (tubulin [2]) [%],GI50 (SF-295; [5]) [nM],GI50 (SK-Mel-5) [nM],GI50 (HCT116) [nM],"GI50 [3, 6] [nM]",GI50 (KM202L) [nM],GI50 (K-562) [nM],GI50 (SF-268; [7]) [nM],other results
"COc1cccc(-c2cc(=O)c3cc(NC(=O)c4ccccc4)ccc3[nH]2)c1 [compound 33, 3'-Methoxy-6'-benzamido-2-phenyl-4-quinolone]",0.0013 ± 7e-05,–,–,–,–,–,–,–,–,–
"COc1cccc(-c2cc(O)c3cc(N4CCOCC4)ccc3n2)c1 [compound 31, 3'-Methoxy-6-morpholinyl-2-phenyl-4-quinolone]",0.00036 ± 0.0001,43 ± 10,49,35.5,26.9,56.2,33.9,24.5,53.7,"GI50 (DU-145): 43.7 nM; GI50 (MDA-N): 8.32 nM; GI50 (OVCAR-4): 6310 nM; antitumor activity / cytotoxicity, in words [3]: highly potent, with an antitumor activity comparable to that of compound 23; GI50 (NCI-H226): 33.9 nM; GI50 (OVCAR-3): 20 nM"
"O=c1cc(-c2cccc(F)c2)[nH]c2cc3c(cc12)OCO3 [compound 13, 3'-Fluoro-6,7-methylenedioxy-2-phenyl-4-quinolone]",0.00053 ± 0.0001,51 ± 3,141,269,219,339,–,339,661,GI50 (NCI-H226): 955 nM; GI50 (OVCAR-3): 288 nM
"COc1cc([C@@H]2c3cc4c(cc3[C@H](O)[C@H]3COC(=O)[C@H]23)OCO4)cc(OC)c1OC [podophyllotoxin, reference compound]",–,84 ± 2,–,–,–,–,–,–,–,–
"O=c1cc(-c2cccc(Br)c2)[nH]c2cc3c(cc12)OCO3 [compound 15, 3'-Bromo-6,7-methylenedioxy-2-phenyl-4-quinolone]",0.00053 ± 0.0001,26 ± 3,331,4370,3390,3310,3090,3470,3020,"GI50 (RXF-393): 2400 nM; GI50 (OVCAR-4): > 100000 nM; GI50 [3, 8]: 3160 nM; GI50 (NCI-H226): 3800 nM; GI50 (OVCAR-3): 4270 nM"
"Nc1ccc2[nH]c(-c3cccc(C(F)(F)F)c3)cc(=O)c2c1 [compound 21, 3'-Trifluoromethyl-6-amino-2-phenyl-4-quinolone]",> 0.04,–,–,–,–,39800,34700,–,–,"activity in tubulin polymerization assay, in words (tubulin [1]): inactive; IC50 (tubulin [1]; [9]): > 0.04 mM"
"Nc1cccc(-c2cc(=O)c3cc4c(cc3[nH]2)OCO4)c1 [compound 10, 3'-Amino-6,7-methylenedioxy-2-phenyl-4-quinolone]",0.00073 ± 0.0002,16 ± 7,2400,933,479,1620,708,891,759,GI50 (RXF-393): 603 nM; GI50 (OVCAR-4): 38900 nM; GI50 (NCI-H226): 2190 nM
"COc1cccc(-c2cc(=O)c3cc(N)ccc3[nH]2)c1 [compound 22, 3'-Methoxy-6-amino-2-phenyl-4-quinolone]",0.0087 ± 0.003,–,–,–,–,4570,3470,–,–,"activity in tubulin polymerization assay, in words (tubulin [1]): moderately active"
"Nc1ccc2[nH]c(-c3cccc(Cl)c3)cc(=O)c2c1 [compound 20, 3'-Chloro-6-amino-2-phenyl-4-quinolone]",0.0061 ± 0.001,–,–,–,–,5500,3160,–,–,"activity in tubulin polymerization assay, in words (tubulin [1]): moderately active; GI50 (OVCAR-4): > 100000 nM"
"CC(=O)Nc1ccc2[nH]c(-c3cccc(F)c3)cc(=O)c2c1 [compound 25, 3'-Fluoro-6-acetamido-2-phenyl-4-quinolone]",–,–,–,–,–,–,–,–,–,"GI50 (SF-295; Homo sapiens, SF-295, read-out: logGI50 (converted)): 38900 nM; GI50 (SF-268; SF-268, read-out: logGI50 (converted)): 25700 nM"
"O=c1cc(-c2cccc(O)c2)[nH]c2cc3c(cc12)OCO3 [compound 12, 3'-Hydroxy-6,7-methylenedioxy-2-phenyl-4-quinolone]",0.00047 ± 0.0001,26 ± 3,5500,1480,1820,3090,3310,724,2290,"GI50 [3, 8]: 3160 nM"
"O=c1cc(-c2cccc(Cl)c2)[nH]c2cc3c(cc12)OCO3 [compound 14, 3'-Chloro-6,7-methylenedioxy-2-phenyl-4-quinolone]",0.00037 ± 3e-05,45 ± 7,–,209,–,501,269,–,–,GI50 (OVCAR-4): > 75900 nM
O=c1cc(-c2ccccc2)[nH]c2cc3c(cc12)OCO3 [compound 34],0.00063 ± 0.0002,26 ± 10,–,–,–,–,–,–,–,–
"O=c1cc(-c2cccc(OC(F)(F)F)c2)[nH]c2ccc(N3CCCC3)cc12 [compound 29, 3'-Trifluoromethoxy-6-pyrrolinyl-2-phenyl-4-quinolone]",0.00072 ± 0.0002,58 ± 5,–,–,–,–,–,–,–,–
"O=c1cc(-c2cccc(C(F)(F)F)c2)[nH]c2cc3c(cc12)OCO3 [compound 16, 3'-Trifluoromethyl-6,7-methylenedioxy-2-phenyl-4-quinolone]",0.00082 ± 0.0002,5 ± 7,–,–,–,2750,1380,–,–,–
"COc1cccc(-c2cc(=O)c3cc(N4CCCCC4)ccc3[nH]2)c1 [compound 30, 3'-Methoxy-6-piperidinyl-2-phenyl-4-quinolone]",0.00078 ± 0.0002,53 ± 6,–,–,–,–,–,–,–,–
CN(C)c1cccc(-c2cc(=O)c3cc4c(cc3[nH]2)OCO4)c1 [compound 36],0.0007 ± 3e-05,29 ± 7,–,–,–,–,–,–,–,–
"COc1cccc(-c2cc(=O)c3cc(N4CCN(C)CC4)ccc3[nH]2)c1 [compound 32, 3'-Methoxy-6-methylpiperazinyl-2-phenyl-4-quinolone]",0.014 ± 0.002,–,1820,912,437,1550,1510,537,1860,IC50 (tubulin [1]; [9]): 0.014 mM; GI50 (DU-145): 2510 nM; GI50 (MDA-N): 200 nM; GI50 (RXF-393): 457 nM; GI50 (OVCAR-4): > 10000 nM; GI50 (NCI-H226): 1510 nM
COc1cccc(-c2cc(=O)c3cc4c(cc3[nH]2)OCO4)c1 [compound 35],0.00057 ± 0.0001,39 ± 8,–,–,–,–,–,–,–,–
"CNc1cccc(-c2cc(=O)c3cc4c(cc3[nH]2)OCO4)c1 [compound 11, 3'-N-Methylamino-6,7-methylenedioxy-2-phenyl-4-quinolone]",0.00065 ± 0.0001,17 ± 11,324,447,245,513,331,398,5500,GI50 (RXF-393): 363 nM; GI50 (NCI-H226): 537 nM; GI50 (OVCAR-3): 339 nM
"COc1ccc(/C=C\c2cc(OC)c(OC)c(OC)c2)cc1O [combretastatin A-4, reference compound]",–,94 ± 2,–,–,–,–,–,–,–,–
"COc1ccc(CCc2cc(OC)c(OC)c(OC)c2)cc1O [dihydrocombretastatin A-4, reference compound]",0.00063 ± 3e-05,65 ± 4,–,–,–,–,–,–,–,–
